Reference: ChEMBL document CHEMBL1155922, “Epiboxidine and novel-related analogues: a convenient synthetic approach and estimation of their affinity at neuronal nicotinic acetylcholine receptor subtypes” (Bioorg Med Chem Lett, 2008)

Key:
[1] = molecular target: Neuronal acetylcholine receptor subunit alpha-7 (Rattus norvegicus, UniProt Q05941); assay: Displacement of [125I]alpha-bungarotoxin from alpha7 nAChR in rat cortical membrane; format: cell membranes
Rattus norvegicus = organism: Rattus norvegicus; assay: Selectivity ratio of Ki for rat alpha4beta2 nAChR to Ki for rat alpha7 nAChR
[2] = molecular target: T1, Neuronal acetylcholine receptor; alpha4/beta2 (Rattus norvegicus, UniProt P09483+P12390); assay: Displacement of [3H]epibatidine from alpha4beta2 nAChR in rat cortical membrane; format: cell membranes
[3] = molecular target: T2, Neuronal acetylcholine receptor; alpha4/beta2 (Homo sapiens, UniProt P17787+P43681); assay: Binding affinity to alpha4beta2 nAChR; format: protein-complex assay
[4] = molecular target: T1, Neuronal acetylcholine receptor; alpha4/beta2; assay: Displacement of [3H]nicotine from alpha4beta2 nAChR in rat cerebral membrane; format: cell membranes
[5] = molecular target: T2, Neuronal acetylcholine receptor; alpha4/beta2; assay: Displacement of [3H]cystisine from alpha4beta2 nAChR; format: protein-complex assay

T1 sequence (P09483 whole entry): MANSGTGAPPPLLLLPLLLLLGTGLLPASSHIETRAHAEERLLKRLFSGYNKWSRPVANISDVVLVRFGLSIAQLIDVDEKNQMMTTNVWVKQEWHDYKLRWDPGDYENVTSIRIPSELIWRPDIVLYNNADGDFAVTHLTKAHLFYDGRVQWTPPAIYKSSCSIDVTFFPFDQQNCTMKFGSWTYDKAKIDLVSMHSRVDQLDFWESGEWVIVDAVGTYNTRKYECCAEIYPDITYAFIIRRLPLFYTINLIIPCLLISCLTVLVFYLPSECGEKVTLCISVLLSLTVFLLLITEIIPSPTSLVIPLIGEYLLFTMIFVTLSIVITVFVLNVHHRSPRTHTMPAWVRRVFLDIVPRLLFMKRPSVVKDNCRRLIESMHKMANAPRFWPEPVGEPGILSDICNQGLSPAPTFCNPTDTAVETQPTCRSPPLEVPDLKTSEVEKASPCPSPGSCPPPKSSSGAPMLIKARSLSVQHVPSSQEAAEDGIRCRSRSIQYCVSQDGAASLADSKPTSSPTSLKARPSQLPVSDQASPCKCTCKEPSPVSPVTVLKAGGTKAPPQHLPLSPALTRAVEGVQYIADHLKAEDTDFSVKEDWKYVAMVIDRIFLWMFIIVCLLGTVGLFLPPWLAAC
T1 sequence (P12390 whole entry): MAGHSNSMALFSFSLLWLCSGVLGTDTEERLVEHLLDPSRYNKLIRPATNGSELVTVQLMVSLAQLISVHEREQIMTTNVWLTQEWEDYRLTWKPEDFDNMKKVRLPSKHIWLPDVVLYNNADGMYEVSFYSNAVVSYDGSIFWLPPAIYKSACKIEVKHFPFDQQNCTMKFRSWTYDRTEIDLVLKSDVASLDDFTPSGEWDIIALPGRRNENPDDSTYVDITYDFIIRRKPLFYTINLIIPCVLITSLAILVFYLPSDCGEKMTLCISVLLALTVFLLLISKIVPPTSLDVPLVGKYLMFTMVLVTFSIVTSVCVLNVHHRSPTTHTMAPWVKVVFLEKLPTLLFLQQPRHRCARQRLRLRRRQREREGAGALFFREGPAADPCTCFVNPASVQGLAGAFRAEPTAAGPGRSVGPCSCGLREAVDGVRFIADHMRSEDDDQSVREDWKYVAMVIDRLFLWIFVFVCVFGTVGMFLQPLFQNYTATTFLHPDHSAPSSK
Chain of Neuronal acetylcholine receptor subunit alpha-7 (Q05941 whole entry): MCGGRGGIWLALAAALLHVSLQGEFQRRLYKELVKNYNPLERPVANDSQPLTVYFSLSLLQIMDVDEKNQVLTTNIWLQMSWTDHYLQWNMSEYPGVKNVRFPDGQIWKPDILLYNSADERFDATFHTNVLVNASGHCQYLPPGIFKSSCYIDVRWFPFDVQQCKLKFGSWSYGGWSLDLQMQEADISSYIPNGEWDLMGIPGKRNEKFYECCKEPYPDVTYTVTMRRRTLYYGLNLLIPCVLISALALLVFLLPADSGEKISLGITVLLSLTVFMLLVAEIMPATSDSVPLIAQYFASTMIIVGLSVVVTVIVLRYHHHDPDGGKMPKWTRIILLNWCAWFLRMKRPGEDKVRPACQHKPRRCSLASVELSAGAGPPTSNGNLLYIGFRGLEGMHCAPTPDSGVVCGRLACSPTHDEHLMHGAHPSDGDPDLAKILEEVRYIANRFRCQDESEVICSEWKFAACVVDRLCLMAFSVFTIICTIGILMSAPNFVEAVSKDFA
T2 sequence (P17787 whole entry): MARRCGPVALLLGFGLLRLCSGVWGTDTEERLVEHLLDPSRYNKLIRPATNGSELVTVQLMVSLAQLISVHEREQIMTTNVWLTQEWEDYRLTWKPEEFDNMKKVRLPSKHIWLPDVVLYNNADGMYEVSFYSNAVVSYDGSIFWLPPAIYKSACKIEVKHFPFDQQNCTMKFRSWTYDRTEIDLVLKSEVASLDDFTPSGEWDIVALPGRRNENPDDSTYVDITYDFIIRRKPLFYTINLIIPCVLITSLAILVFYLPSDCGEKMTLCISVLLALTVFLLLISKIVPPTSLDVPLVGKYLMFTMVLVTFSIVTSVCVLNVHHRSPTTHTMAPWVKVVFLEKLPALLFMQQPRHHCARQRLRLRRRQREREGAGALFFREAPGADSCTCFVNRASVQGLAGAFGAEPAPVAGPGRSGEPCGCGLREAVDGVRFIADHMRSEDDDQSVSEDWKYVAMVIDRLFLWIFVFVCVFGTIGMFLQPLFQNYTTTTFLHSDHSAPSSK
T2 sequence (P43681 whole entry): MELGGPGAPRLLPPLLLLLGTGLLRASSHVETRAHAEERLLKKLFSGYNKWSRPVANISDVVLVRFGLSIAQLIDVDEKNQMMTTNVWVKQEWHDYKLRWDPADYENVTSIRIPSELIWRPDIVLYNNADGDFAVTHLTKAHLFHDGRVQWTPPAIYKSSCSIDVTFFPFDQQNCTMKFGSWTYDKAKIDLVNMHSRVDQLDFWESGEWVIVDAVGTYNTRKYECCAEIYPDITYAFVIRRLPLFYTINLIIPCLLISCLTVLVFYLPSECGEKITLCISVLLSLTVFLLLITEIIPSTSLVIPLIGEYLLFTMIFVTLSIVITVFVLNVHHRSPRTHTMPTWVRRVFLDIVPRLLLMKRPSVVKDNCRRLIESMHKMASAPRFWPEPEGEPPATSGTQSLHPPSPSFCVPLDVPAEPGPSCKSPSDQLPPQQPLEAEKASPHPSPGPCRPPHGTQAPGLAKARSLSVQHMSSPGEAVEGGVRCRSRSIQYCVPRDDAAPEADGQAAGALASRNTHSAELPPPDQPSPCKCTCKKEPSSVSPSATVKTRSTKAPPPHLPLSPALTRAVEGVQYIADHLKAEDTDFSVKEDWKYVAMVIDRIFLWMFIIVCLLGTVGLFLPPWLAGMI

Structure (SMILES) | Ki [1] [nM] | Ratio Ki (Rattus norvegicus) | Ki [2] [nM] | Ki [3] [nM] | Ki [4] [nM] | Ki [5] [nM]
Cc1cc(C2=CC3CCC2N3)on1 (racemic) | 1600 | 32 | 50 | – | – | –
Cc1cc(C2=CC3CCC2N3C)on1 (racemic) | 394 | – | 514 | – | – | –
Cc1cc([C@@H]2C[C@H]3CC[C@H]2N3)on1 (racemic) [ENDO-EPIBOXIDINE] | 230 | – | 70 | – | – | –
Cc1cc([C@H]2C[C@H]3CC[C@H]2N3)on1 (racemic) [EXO-EPIBOXIDINE] | 6 | 15 | 0.4 | 0.46 | 0.6 | 1.33
